Here are results for nine molecules from patent US11873298B2, “Compounds and uses thereof” (JANSSEN PHARMACEUTICA NV, priority 2017, dated 2024).

Broadly, the pIC50 is the negative decadic logarithm of the IC50, by convention in mol/L. A high value points to a small IC50. What is called pEC50 is −log10 of the EC50, conventionally taken in molar units.

The target of one assay is T1, SCD5 (Homo sapiens, UniProt Q86SK9).
T1 construct: host or cells: S. cerevisiae ole1Δ strain (W303 pdr1Δ pdr3Δ background), plasmid pRS316 with TDH3 promoter and CYC1 terminator
T1 sequence (Q86SK9 1-330): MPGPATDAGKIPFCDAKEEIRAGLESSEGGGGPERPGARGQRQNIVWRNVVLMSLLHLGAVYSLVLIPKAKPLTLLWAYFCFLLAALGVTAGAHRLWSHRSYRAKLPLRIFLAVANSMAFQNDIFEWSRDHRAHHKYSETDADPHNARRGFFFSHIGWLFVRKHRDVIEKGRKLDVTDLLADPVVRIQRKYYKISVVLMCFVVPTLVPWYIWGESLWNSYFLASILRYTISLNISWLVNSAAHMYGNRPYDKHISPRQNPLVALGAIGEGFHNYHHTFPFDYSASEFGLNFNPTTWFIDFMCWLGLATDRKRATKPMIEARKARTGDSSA
Kind of assay: Growth inhibition of humanized yeast strain expressing SCD5 as sole desaturase. The assay is classed as cell-based. Particulars: humanized yeast strain expressing SCD5. Put shortly:
(§1)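 OD600 growth read-out. ole1Δ yeast, pdr1Δ pdr3Δ, with Ole1/SCD1/SCD5 on a plasmid; SX-Ura media throughout; 2× cell density 0.02 in CSM-Galactose; DMSO compound dilutions; humidified 30° C.; Ole1 stopped at 24 h, SCD1/SCD5 at 40 h.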

For assay [1], the system named is yeast strains expressing the human α-synuclein. Nature of the assay: Yeast α-synuclein toxicity rescue assay (OD600 growth). Particulars: 40 h; for pEC50: read-out: α-Syn EC50; for Emax: read-out: α-Syn Emax.
Text: The induced expression of α-synuclein and ApoE4 confers cytotoxicity, thus enabling the identification of compounds that can restore cell viability. This instantaneous/synchronous induction of α-synuclein and ApoE4 can be achieved due to the following expression control. In glucose-containing media, gene expression from the GAL1 promoter is ‘off’ and actively repressed by additional epigenetic factors. In raffinose, expression is ‘off’, but the promoter not actively repressed. Upon transition to galactose-containing media, the promoter is instantaneously turned ‘on’ to achieve robust and synchronous induction of α-synuclein or ApoE4 expression. This highly regulated induction provides a robust window for the determination of both efficacy (amplitude of protective effect) and potency (concentration of protective effect) of cytoprotective compounds.
Re-suspended compound stocks were subsequently arrayed into 384 well compound plates using automated pipetting. All other wells not receiving stock compound were filled with 10 μL of 100% DMSO using an automated plate filler (Multidrop Combi). An 11 point, 2-fold serial dilution was then performed using the robotic platform. Compound assay plates were covered with foil and stored at −20° C. until use.
Each strain was handled according to standard protocols and cultured in media composed of CSM (complete synthetic media), YNB (yeast nitrogenous base), and a 2% (w/v) carbon source (either glucose, raffinose, or galactose).
In a standard yeast assay, a single-use aliquot of cells was thawed on ice and diluted into CSM/glucose (5 mL). Cultures were grown for 8 hours at 30° C. This pre-growth enables the yeast to exit the thaw and begin to grow without expressing aSyn or ApoE4. After 8 hours, cell density (OD600) was determined and cultures diluted to an OD600 of 0.01 in CSM/raffinose for an overnight culture phase at 30° C. During this period, the active glucose repression of the GAL1 promoter was relieved; however, expression of the α-Syn/ApoE4 genes were not yet induced. After ˜16 hours of growth, cultures attain an OD600 of 0.4-0.8 and were ready to apply to assay plates containing compound.
Compound profiling assays were executed in clear-bottom 384 well plates. First, compound plates were thawed at room temperature for 45′, centrifuged at 1,000×g for 1 minute, and the foil removed. Clear 384 well assay plates were then filled with 15 μL of CSM/galactose. […] The pin tool was washed iteratively with both 50% DMSO and 100% ethanol between each assay plate. After delivering compound to each assay plate, the overnight CSM/raffinose aSyn or ApoE4 cultures were added at a 2X cell density (0.04 for aSyn and 0.08 for ApoE4) in CSM/galactose to achieve a final assay OD600 of 0.02 and 0.04 for aSyn and ApoE, respectively. The cultures (15 μL per well) were then dispensed to the compound -containing 384 well assay plates using an automated plate filler. Plates were incubated in a humidified 30° C. incubator for 40 or 24 hours for aSyn and ApoE4, respectively. The ODsoo of each assay plate was then read with a microplate reader (e.g., Perkin Elmer Envision).
The efficacy and potency of compounds were calculated according to the following. Raw data (OD600 values) were first background corrected to account for OD600 contributed by the plate and media itself. The efficacy (percent above DMSO, herein referred to as “Emax”) was calculated according to the equation: (Experimental well−DMSO control well)/(DMSO control well)*100. […] Normalized dose-response data was fit with a logistic regression curve using Spotfire (TIBCO), or similar curve-fitting software package. EC50 values were then reported along with EMax to provide both efficacy and potency measures for each analog and enable further compound design.
A further assay concerns the target T2, SCD1 (Homo sapiens, UniProt O00767).
T2 construct: host or cells: S. cerevisiae ole1Δ strain (W303 pdr1Δ pdr3Δ background), plasmid pRS316 with TDH3 promoter and CYC1 terminator
T2 sequence (O00767 1-359): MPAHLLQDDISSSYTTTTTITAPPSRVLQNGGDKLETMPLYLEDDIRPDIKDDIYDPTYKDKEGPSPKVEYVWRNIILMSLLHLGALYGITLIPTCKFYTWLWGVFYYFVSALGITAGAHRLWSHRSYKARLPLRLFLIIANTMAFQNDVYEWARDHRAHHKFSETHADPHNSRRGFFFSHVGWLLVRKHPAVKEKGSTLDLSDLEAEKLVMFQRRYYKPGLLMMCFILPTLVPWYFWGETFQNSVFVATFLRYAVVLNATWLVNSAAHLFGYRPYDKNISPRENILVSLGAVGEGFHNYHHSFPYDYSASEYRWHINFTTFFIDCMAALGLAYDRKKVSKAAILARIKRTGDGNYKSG
Kind of assay: Growth inhibition of humanized yeast strain expressing SCD1 as sole desaturase. In kind it is cell-based. Particulars: humanized yeast strain expressing SCD1. Put shortly:
as §1

In assay [2] the test system is yeast strains expressing the human ApoE4. Nature of the assay: Yeast ApoE4 toxicity rescue assay (OD600 growth). Particulars: 24 h; for Emax: read-out: ApoE4 Emax; for pEC50: read-out: ApoE4 EC50.
Another assay has as its target T3, Ole1 (Saccharomyces cerevisiae, UniProt P21147).
T3 construct: expressed in transfected cells; host or cells: S. cerevisiae ole1Δ strain (W303 pdr1Δ pdr3Δ background), plasmid pRS316 with TDH3 promoter and CYC1 terminator
T3 sequence (P21147 1-510): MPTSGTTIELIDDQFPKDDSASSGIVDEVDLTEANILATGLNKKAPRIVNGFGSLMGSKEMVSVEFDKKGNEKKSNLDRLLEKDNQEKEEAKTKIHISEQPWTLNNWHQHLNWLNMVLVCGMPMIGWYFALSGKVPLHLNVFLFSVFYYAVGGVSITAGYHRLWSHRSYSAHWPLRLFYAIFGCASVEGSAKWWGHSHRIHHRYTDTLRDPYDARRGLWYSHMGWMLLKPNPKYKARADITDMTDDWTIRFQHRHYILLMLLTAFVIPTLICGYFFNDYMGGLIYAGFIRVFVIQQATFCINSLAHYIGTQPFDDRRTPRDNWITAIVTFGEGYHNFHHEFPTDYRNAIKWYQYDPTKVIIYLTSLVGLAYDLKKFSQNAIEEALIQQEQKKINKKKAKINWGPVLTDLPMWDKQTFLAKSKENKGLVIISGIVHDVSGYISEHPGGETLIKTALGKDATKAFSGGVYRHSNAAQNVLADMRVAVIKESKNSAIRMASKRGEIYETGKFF
Kind of assay: Growth inhibition of yeast strain expressing Ole1 as sole desaturase. The assay is classed as cell-based. Particulars: yeast strain expressing Ole1 as sole desaturase. Put shortly:
as §1

pEC50, pIC50: −log10 of the molar value.

Turning to `COc1cccc(-c2noc(C3CCN(C(=O)CNC(=O)c4ccccc4)CC3)n2)c1` [compound 11], the pIC50 against SCD5, at SCD1 and against Ole1 was < 4.35 throughout. Moreover, the negative logarithm of the EC50 (pEC50) in assay [1] was 5.23. For the same molecule, the Emax in assay [1] came out at 309%; in assay [2], 600%.

For `COc1ccc(-c2csc(C3CCN(C(=O)CNC(=O)c4ccccc4)CC3)n2)cc1OC` [Compound 38], on SCD5, the pIC50 is 4.39 and the “SCD5 % Max Inhibition” value stood at 64.24%. Further, in assay [1], the pEC50 is 5.48 and the Emax was determined as 336%. Also, on SCD1, the pIC50 was < 4.35 and the “SCD1 % Max Inhibition” value worked out at 72.81%. In assay [2], the pEC50 was 5.22 and the Emax came out at 750%. On Ole1, the pIC50 was < 4.35 and the “OLE1 % Max Inhibition” value was 20.26%.

Take `COc1ccc(-c2noc(C3CCN(C(=O)[C@@H]4CC(=O)N(c5ccc(C)c(C)c5)C4)CC3)n2)cc1` (single isomer, unassigned) [Compound 63]: at SCD5, the pIC50 is < 4.35 and the “SCD5 % Max Inhibition” value stood at 9.39%. Besides, in assay [1], the pEC50 was 4.77 and the Emax worked out at 68%. In addition, on SCD1, the pIC50 is 4.47 and the “SCD1 % Max Inhibition” value is on record as 62.04%. In assay [2], the pEC50 was 4.87 and the Emax worked out at 250%. Further, at Ole1, the pIC50 was < 4.35 and the “OLE1 % Max Inhibition” value worked out at 101.06%.

For `O=C(NCC(=O)N1CCC(c2nc(-c3ccc(F)cc3)no2)CC1)c1ccccc1` [Compound 41], at SCD5, the pIC50 was < 4.35 and the “SCD5 % Max Inhibition” value came out at 43.51%. In assay [1], the pEC50 is 4.96 and the Emax amounted to 211%. Also, on SCD1, the pIC50 is 4.41 and the “SCD1 % Max Inhibition” value was 55.28%. Further, the Emax in assay [2] was determined as 400%. Moreover, at Ole1, the pIC50 was < 4.35 and the “OLE1 % Max Inhibition” value was 85.45%.

Regarding `COc1ccc(-c2noc(C3CCN(C(=O)C(C)NC(=O)c4ccccc4)CC3)n2)cc1OC` (centres unmarked) [Compound 28], at SCD5, the pIC50 was < 4.35 and the “SCD5 % Max Inhibition” value is on record as 79.98%. In assay [1], the pEC50 was 7.18 and the Emax was determined as 576%. Further, at SCD1, the pIC50 is < 4.35 and the “SCD1 % Max Inhibition” value is recorded as 98.15%. For the same molecule, in assay [2], the pEC50 was 5.80 and the Emax is 836%. On Ole1, the pIC50 was < 4.35 and the “OLE1 % Max Inhibition” value is reported as 4.80%.

On to `COc1ccc(-c2noc(N3CCC(C(=O)N4CCCCC4)CC3)n2)cc1OC` [compound 6], for which the pIC50 on SCD5 was 4.39; at SCD1, < 4.35; on Ole1, 4.41. Besides, the pEC50 in assay [1] was 4.99; in assay [2], 4.82. Besides, the Emax in assay [1] amounted to 460%; in assay [2] it was 815%.

Turning to `CCOc1ccc(-c2noc(C3CCN(C(=O)NCCc4ccccc4)CC3)n2)cc1OC` [compound 83], the pIC50 on SCD5, on SCD1 and at Ole1 was < 4.35 in each case. Moreover, the pEC50 in assay [1] was 5.03. Also, the figures for the Emax in assay [1] and in assay [2] were 151% and 567%, respectively.

With `Cc1cccc(-c2nc(C3CCN(C(=O)[C@@H]4CC(=O)N(c5ccc(C)c(C)c5)C4)CC3)no2)c1` (single isomer, unassigned) [compound 74], the pIC50 on SCD5 was < 4.35; against SCD1 it was 4.51; at Ole1 it was < 4.35. The pEC50 in assay [1] was 4.75. Also, the Emax in assay [1] amounted to 155%; in assay [2], 411%.

Turning to `CCOc1ccc(-c2noc(C3CCN(C(=O)[C@@H]4CC(=O)N(c5ccccc5)C4)CC3)n2)cc1OC` [compound 86], the negative logarithm of the IC50 (pIC50) against SCD5 is 4.48; against SCD1, < 4.35; on Ole1 it was < 4.35. Also, the pEC50 was 7.74 in assay [1] and 7.19 in assay [2]. Further, the Emax in assay [1] is 772%; in assay [2] it was 633%.
